The source of these data is patent US6036941A, “Fluorogenic substrates for diagnosis and photodynamic treatment of tumors” (Consiglio Nazionale Delle Ricerche, priority 1995, dated 2000).

Data set [1] is described as follows: Rose Bengal in blood samples of treated mice. Conditions: Swiss mice treated with 8 mg/kg. Type of data set: in vivo. How it is done: Considering the possible systemic use of Rose Bengal acetate, the effect was evaluated of the serum esterase activity on the hydrolysis kinetics of the fluorogenic substrate. The esterase activity of the blood can induce an extracellular hydrolysis of Rose Bengal acetate. The kinetics, however, of this hydrolysis is slow enough to permit the cellular compartment to accumulate and hydrolyse the Rose Bengal acetate according to the intracellular esterase activity. In any case the hydrolysed Rose Bengal is quickly eliminated from the blood.

The test system of data set [2] is purified esterase enzyme of pig liver. Kind of data set: Enzyme hydrolysis by purified pig liver esterase, followed fluorometrically. Format: biochemical. Particulars: hydrolysis in solution, phosphate buffer 0.2 M pH 6.85, 20° C., esterase 25 U/ml; read-out: enzyme hydrolysis constant Km. The method, then:
To the solution of Rose Bengal acetate 3×10^-5 M in phosphate buffer 0.2 M (pH 6.85) was added the purified esterase enzyme of pig liver (Sigma Chem, Co., GB) at the final concentration of 25 U/ml. The reaction was performed at room temperature (20° C.) and the formation of the product was measured fluorometrically (excitation 525 nm, emission 565 nm). In a second group of experiments, to the reaction solution was added human albumin (Sigma Chem. Co, GB) at the concentration of 0.1 mg/ml, better to simulate the conditions of hydrophobicity to be met in the cells. In these conditions, the appearance of the fluorescence was accelerated.
The kinetics of hydrolysis was followed by determining the intensity of fluorescence at 565 nm corresponding to the peak of emission of Rose Bengal. Examples of curves of hydrolysis kinetics are shown in FIG. 3 in which the curve (a) represents the intensity of fluorescence in time of a solution of Rose Bengal acetate subjected to hydrolysis in the presence of albumin with esterase, and the curve (b) represent the intensity of fluorescence of the solution of Rose Bengal acetate with albumin, in the absence of esterase, at the concentration of 3×10^-5 M.

Data set [3] relates to B16 cells (mouse melanoma). Nature of the data set: Photosensitizer accumulation in drug-resistant versus sensitive B16 cells. Format: cell-based. The method, then:
(§1) The cells were treated with Rose Bengal acetate at doses between 5×10^-5 and 10^-7 M, and with 10^-5 M Photofrin®. The intracellular accumulation of photosensitizer was evaluated in terms of fluorescence intensity. Giving a value of 100 to the photosensitizer amount present in each sensitive cell line, the amount of photosensitizer retained in the corresponding resistant cell line is 100% and 85% for Photofrin and 170% and 120% for Rose Bengal, in IGROV and POGB respectively. A more evident difference of the accumulation capacity between Photofrin and Rose Bengal can be observed in the case of B16 cells, a line derived from mouse melanoma. In this case the amount of Photofrin® accumulated in resistant cells is about 65% of that in sensitive ones, while the amount of Rose Bengal is about 120%.

Data set [4] relates to normal fibroblast line and sarcoma-derived cell line of Galliera rats. Nature of the data set: Intracellular drug accumulation, normal fibroblasts versus sarcoma-derived cells. Format: cell-based, rat. The method, then:
A comparison of intracellular drug accumulation was made between normal and tumour cells. As a model, a normal fibroblast line from embryos (6-10 days) of Galliera strain rats, and a stabilised cell line derived from sarcoma spontaneously growing in syngeneic Galliera rats, were used. After incubation with Rose Bengal acetate at a concentration of 5×10^-6 M for 2 hours, a ratio of intracellular photosensitizer concentration of about 16 was measured between normal and transformed cells, in terms of fluorescence intensity at 580 nm. The ratio of the esterase activity in the two cell lines was found less than the ratio shown by the photosensitizer: this can be explained by the fact that the Rose Bengal produced by the enzyme activity is a polar compound. It must be considered that in this form Rose Bengal requires an active transport mechanism to be released (E. Prosperi, A. C. Croce et al. Cytometry, 7, 70-75, 1986), and that the tumour cells are characterised by an impaired metabolic condition (J. Szollosi, P. Kertai et al. J. Histochem. Cytochem. 29, 503-510, 1982), that enhances the photosensitizer accumulation.
The same cell lines, treated with the most commonly used photosensitizer, Photofrin®, at the concentration of 2×10^-5 M for a time of 2 hours yielded a ratio value of about 8 (FIG. 6).

Data set [5] deals with IGROV cells (ovarian carcinoma). Nature of the data set: Photosensitizer accumulation in drug-resistant versus sensitive IGROV cells. Particulars: Rose Bengal acetate 5×10^-5 to 10^-7 M, Photofrin 10^-5 M, fluorescence intensity. Type of data set: cell-based, human. The method, then:
(§2) Tests were also performed on cell lines derived from human tumours: POGB, from bronchial microcytoma, and IGROV, from ovarian carcinoma. In particular, for each line a comparison was made between the cells sensitive and resistant to chemotherapeutic agents. […] Results related to Rose Bengal treatment were compared with those obtained with Photofrin®, a well-establishes photosensitizer.
as §1

Data set [6] deals with rat glioma (C6) cells. Kind of data set: Intracellular accumulation and hydrolysis kinetics in C6 cell cultures. Format: cell-based. The method, then: Evaluations of the kinetics of intracellular accumulation of Rose Bengal acetate were performed on cultures of an established cell line of rat glioma (C6) which grows as a monolayer. This cell line is widely used for pharmaco-kinetic studies of fluorescent substances with photosensitisation activity by virtue of its rapid proliferation activity and the possibility of modifying the physiological activities of the cells.
It is particularly important that, principally in short-term treatments, a continuous increase of intracellular Rose Bengal is recorded in the cells treated with the acetylated species, even when the cells are transferred into a medium devoid of this substance. This can easily be interpreted in terms of the balance between the processes of incorporation and hydrolysis. Since the process of incorporation is rapider than that of hydrolysis, inside the cells an accumulation is created of hydrolysable substance on which the enzyme can continue to effect its action through time.
Further, it is interesting to note that the kinetics of hydrolysis of Rose Bengal acetate is accelerated by the cellular environment: the Km passes from about 10^-3 M in conditions of hydrolysis in solution to about 10^-6 M in the cells.

Data set [7] concerns POGB cells (bronchial microcytoma). Nature of the data set: Photosensitizer accumulation in drug-resistant versus sensitive POGB cells. Format: cell-based, human. Conditions: Rose Bengal acetate 5×10^-5 to 10^-7 M, Photofrin 10^-5 M, fluorescence intensity. How it is done:
as §2, §1

The test system of data set [8] is rat glioma (C6) cells. Nature of the data set: Phototoxicity after irradiation at 540±5 nm, cell count 24 h later. Particulars: 2 mw/cm^2, up to 2.4 J, compared with Rose Bengal (FIG. 5). Type of data set: cell-based. From the text: The cells treated with Rose Bengal or with Rose Bengal acetate as described above were submitted to irradiation at 540±5 nm by a Xe 75 W lamp and an interference filter.
Irradiation was realised with a power of 2 mw/cm^2 for various times until the administration of a maximum dose of 2.4 J, in accordance with the protocols normally used in tests of phototoxicity. The irradiation was effected in HBSS buffer (Hank's Balanced Salt Solution, J. H. Hanks and R. E. Wallace, Proc. Natl. Exp. Biol. Med 71, 196, 1949) in the absence of the drug in the culture medium to avoid secondary effects. Twenty-four hours after irradiation the cells adhering to the slide on which they had been grown were counted. The expression of phototoxicity was defined as the ratio between the number of cells present after the treatment and those counted on the untreated controls. […] This effect relates directly to the quantity of fluorescent substance with photosensitisation activity produced by the enzyme activity, evaluated as fluorescence intensity at 580 nm (FIG. 4).

Data set [9] has as its system lymphocytes and granulocytes. Nature of the data set: Hydrolysis activity in white blood cells on smears. Type of data set: cell-based.
Data set [10] relates to rat glioma (C6) cells. Nature of the data set: Cellular vitality tests (trypan blue and fluorescein diacetate methods). Particulars: incubation for 4 h at concentrations up to 1×10^-4 M, no irradiation. Type of data set: cell-based. The text has this:
The hydrophobicity of the intracellular environment would therefore seem to create the structural condition that favours the action of the enzyme. […] The finding relative to Rose Bengal agrees with the literature (R. P. G. Feenstra and S. C. G. Tseng, Ophthalmology, 99 605, 1992).

With `CC(=O)Oc1c(I)cc2c(-c3c(Cl)c(Cl)c(Cl)c(Cl)c3C(=O)O)c3cc(I)c(=O)c(I)c-3oc2c1I` [Rose Bengal acetate], the “Rose Bengal in the blood” value in data set [1] was “do not present appreciable quantities”. In addition, the Km in data set [2] is roughly 1000 µM; in the data set on rat glioma (C6) cells [6], roughly 1 µM. For the same molecule, the “amount accumulated in resistant cells relative to sensitive ones” value in data set [3] is “about 120%”. Also, the “ratio of intracellular photosensitizer concentration between normal and transformed cells” value in data set [4] (2 h, 5 µM) is “about 16”. For the same molecule, the “amount of photosensitizer retained in resistant cell line (sensitive line = 100)” value in data set [5] is given as 170%; in [7], 120%. Moreover, in the data set with rat glioma (C6) cells [8], the “phototoxicity (cell survival)” value was “strong phototoxic effect”. In addition, in [9], the “hydrolysis activity in lymphocytes, less than in granulocytes” value was found to be 40%. Moreover, the cell mortality entry with rat glioma (C6) cells [10] was “no significant cell mortality”.

In the case of `O=C(O)c1c(Cl)c(Cl)c(Cl)c(Cl)c1-c1c2cc(I)c(=O)c(I)c-2oc2c(I)c(O)c(I)cc12` [Rose Bengal, reference compound], in the data set on rat glioma (C6) cells [10], the cell mortality result is on record as “no significant cell mortality”.

On to `CC(=O)Oc1ccc2c(c1)Oc1cc(OC(C)=O)ccc1C21OC(=O)c2ccccc21` [diacetate fluorescein, reference compound], for which, in data set [2], the Km was 5 µM.

Photofrin® [reference compound]: the “amount accumulated in resistant cells relative to sensitive ones” value in data set [3] is listed as “about 65%”. Further, in data set [4] (2×10^-5 M for 2 hours), the “ratio of intracellular photosensitizer concentration between normal and transformed cells” value was “about 8”. For the same molecule, the “amount of photosensitizer retained in resistant cell line (sensitive line = 100)” value in [5] is recorded as 100%; in data set [7], 85%.

What is called Km is the concentration of substrate that gives half-maximal velocity.
